Experimental findings from patent publication US4169953A (priority 1977, dated 1979) are described below.

Each structure is given as a SMILES string. Values after ≈ are worked out from the molar mass of the structure shown. Counter-ions that a name gives are not always drawn.

The subject of one data set is Newcastle disease virus. The data set can be described thus: microbe, parasite or virus in culture. In kind it is cell-based. The settings on record: avian paramyxovirus 1, in Gallus gallus.
A further data set can be described thus: in vitro. Particulars: chicken, chick embryo fibroblasts.

`O=C(OC1CCCC1)C12CCCC(C1)C1CCC2C1` (centres unmarked): in the data set with Newcastle disease virus, the MIC was 40 µg/mL (≈ 152 µM). The molecule also returned an MCC in “in vitro” of 200 µg/mL.

The molecule `O=C(OC1CCCCC1)C12CCCC(C1)C1CCC2C1` (centres unmarked) showed an MIC against Newcastle disease virus of 200 µg/mL (≈ 724 µM). The MCC in the data set “in vitro” came out at 200 µg/mL.

The molecule `O=C(OC1CC2CC1C1CCCC21)C12CCCC(C1)C1CCC2C1` (centres unmarked) returned an MIC against Newcastle disease virus of 200 µg/mL (≈ 609 µM). Further, in the data set “in vitro”, the MCC came to 1000 µg/mL.

In turn, `COC(=O)C12CCCC(C1)C1CCC2C1` (centres unmarked) [CH3] showed an MIC in the data set with Newcastle disease virus of 200 µg/mL (≈ 960 µM). The molecule also registered an MCC in “in vitro” of 200 µg/mL.

`NC12CC3CC(CC(C3)C1)C2` [adamantylamine hydrochloride, reference compound]: in the data set with Newcastle disease virus, the MIC was 250 µg/mL. Also, the MCC in the data set “in vitro” turned out to be 250 µg/mL.

In the data set with Newcastle disease virus, `CCCCOC(=O)C12CCCC(C1)C1CCC2C1` (centres unmarked) [n-C4 H9] registered an MIC of 40 µg/mL (≈ 160 µM). This molecule came in with an MCC in “in vitro” of 200 µg/mL.

With `CCCCCCCCOC(=O)C12CCCC(C1)C1CCC2C1` (centres unmarked) [n-C8 H17], in the data set with Newcastle disease virus, the MIC is 200 µg/mL (≈ 653 µM). In “in vitro”, this molecule yielded an MCC of 1000 µg/mL.
